# Laboratory results published in PMC4339887, “Selective Sirt2 inhibition by ligand-induced rearrangement of the active site” (Nature Communications, 2015).
# Columns and labels:
# human Sirt4 = molecular target: T1, human Sirt4 (Homo sapiens, UniProt Q9Y6E7); assay: Sirt4-dependent deacetylation of acetylated Nnt397-peptide, LC-MS; assay type: biochemical; details: 200 μM, acetyl-lysine substrate
# T1 construct: Human Sirt4_25–314 (Uniprot: Q9Y6E7); made in house
# T1 sequence (Q9Y6E7 25-314): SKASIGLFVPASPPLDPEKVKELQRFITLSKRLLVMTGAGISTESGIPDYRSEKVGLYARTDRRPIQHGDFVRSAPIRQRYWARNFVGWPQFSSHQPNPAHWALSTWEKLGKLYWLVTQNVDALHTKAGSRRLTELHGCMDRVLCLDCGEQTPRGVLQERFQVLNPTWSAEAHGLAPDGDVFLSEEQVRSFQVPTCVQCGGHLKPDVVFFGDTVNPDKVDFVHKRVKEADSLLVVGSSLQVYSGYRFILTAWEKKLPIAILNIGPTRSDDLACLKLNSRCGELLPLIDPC
# Description: Initial screens were conducted with a high-throughput fluorescence-based assay using the substrate ZMAL (Z-Lys(Acetyl)-AMC) that was synthesized according to published procedures. For this human Sirt1_133–747, human Sirt2_25–389, human Sirt3_101–399 or Sirt3_118–395 were mixed with assay buffer (50 mM Tris/HCl, 137 mM NaCl, 2.7 mM KCl, 1 mM MgCl2, pH 8.0), β-NAD^+ (final assay concentration 500 μM), the substrate ZMAL (final assay concentration 10.5 μM from a 12.6 mM stock solution in DMSO) and the respective inhibitor in DMSO at various concentrations or DMSO as a control (final DMSO concentration 5–20% (v/v)). The mixture was incubated at 37 °C for 4 h, with agitation at 150 r.p.m. […] Then the fluorescence intensity was measured in a microplate reader (BMG Polarstar, λex 390 nm, λem 460 nm). The amount of inhibition was determined with respect to the mixture with only DMSO. IC50 values were determined with Graphpad Prism software using a non-linear regression to fit the dose–response curve. […] Peaks of acetylated and deacetylated substrate were quantified by absorption at 280 nm. […] The samples were then diluted to a peptide concentration of 5 μM with 0.1% (v/v) formic acid and analysed on an EASY-nLCII connected to a LTQ mass spectrometer (Thermo Fisher Scientific). […]
# [1] = test system: mitochondrial lysine-acetylation in HEK293 cells; assay: mitochondrial protein acetylation, western blot of mitochondrial extracts; assay type: cell-based; details: 16 h
# Description: page 27: Cell cultiva tion. HEK-293 cells (ATCC accession no. CRL-1573) were grown in Dulbecco's modified Eagle's medium (DMEM, PAA) containing 10% (vol/vol) fetal calf serum (FCS, PAA), 1% (vol/vol) penicillin (PAA), 1% (vol/vol) streptomycin (PAA), 1% (vol/vol), L- glutamine (PAA) at 37 °C in a 5% (vol/vol) CO2 atmosphere. Mitochondrial extra ction. HEK-293 cells (ATCC accession no. CRL-1573) were treated with nicotinamide or […]2 at the indicated concentrations for 16 h. Cells were washed in PBS and lysed in 5 packed cell volumes of lysis buffer (20 mM HEPES/KOH, 250 mM sucrose; 10 mM KCl, 1.5 mM MgCl2, 1 mM EDTA, 1 mM EGTA, 1 mM DTT; 0.1 mM PMSF, 1uComplete Protease Inhibitor Cocktail (Roche), pH 7.5). Cells were then homogenized in a Dounce homogenizer and 10% (vol/vol) of sample was removed for use as whole cell extract (WCE). To the remaining lysate, unbroken cells and nuclei were removed by centrifugation (10 min, 800g). The supernatant was transferred and centrifuged (10 min, 7,000g) to pellet mitochondria. Mitochondria were washed twice in lysis buffer, repeating centrifugation after each wash, followed by resuspending washed mitochondria in lysis buffer. […] Lysates were cleared by centrifugation, protein concentrations were quantitated and normalized with 1u Laemmli Buffer. […]
smiles,measurement,setting,value
Cc1cc(C)nc(SCC(=O)Nc2ncc(Cc3cccc4ccccc34)s2)n1 [SirReal2],effect on activity of Sirt4,human Sirt4,very little effect
same,acetylation of mitochondrial proteins,[1],does not alter
